Laboratory results taken from PubChem BioAssay (NCI).
“And” between values parts separate entries of the source, which are not always exact repeats. Equal values may be shown once.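 Test compounds were applied to cells in 96-well plates for 48 hours at 5 doses. GI50 marks 50% less growth. TGI marks complete inhibition of growth.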

Experiments:
Assay in all cases: NCI-60 cell line screen, 48 h
SK-MEL-5 melanoma = test system: SK-MEL-5 melanoma
COLO 205 colon = test system: COLO 205 colon
SW-620 colon = test system: SW-620 colon
NCI/ADR-RES ovarian = test system: NCI/ADR-RES ovarian
SF-295 CNS = test system: SF-295 CNS
CAKI-1 renal = test system: CAKI-1 renal
786-0 renal = test system: 786-0 renal
T-47D breast = test system: T-47D breast
M14 melanoma = test system: M14 melanoma
CCRF-CEM leukemia = test system: CCRF-CEM leukemia

SMILES | GI50 (SK-MEL-5 melanoma) | TGI (SK-MEL-5 melanoma) | GI50 (COLO 205 colon) | TGI (COLO 205 colon) | GI50 (SW-620 colon) | TGI (SW-620 colon) | GI50 (NCI/ADR-RES ovarian) | TGI (NCI/ADR-RES ovarian) | GI50 (SF-295 CNS) | TGI (SF-295 CNS) | GI50 (CAKI-1 renal) | TGI (CAKI-1 renal) | GI50 (786-0 renal) | TGI (786-0 renal) | GI50 (T-47D breast) | TGI (T-47D breast) | GI50 (M14 melanoma) | TGI (M14 melanoma) | GI50 (CCRF-CEM leukemia) | TGI (CCRF-CEM leukemia)
FC(F)(c1ccc2ncccc2c1)c1nnc2ccc(-c3ccncc3)nn12 | 48.5 µM | > 100 µM | 91.1 µM | > 100 µM | > 100 µM | > 100 µM | 64.3 µM | > 100 µM | 2.21 µM | > 100 µM | 25.1 µM | > 100 µM | 69.3 µM | > 100 µM | 61.9 µM | > 100 µM | > 100 µM | > 100 µM | > 100 µM | > 100 µM
COc1cc(F)c(F)c(Nc2ccc(I)cc2F)c1NS(=O)(=O)C1(C[C@H](O)CO)CC1 | 1.02 µM | > 10 µM | 0.0234 µM | > 2.51 µM | 0.0591 µM | > 10 µM | > 5.58 µM | > 10 µM | > 5.78 µM | > 10 µM | 0.44 µM | > 10 µM | > 4.02 µM | > 10 µM | > 4.02 µM | > 9.3 µM | 0.0242 µM | 1.59 µM | > 9.26 µM | > 10 µM
O=C1c2ccccc2-[n+]2ccc3c([nH]c4ccccc43)c21 |  | 0.4 µM |  | 0.498 µM |  | 2.72 µM |  | 4.61 µM |  | 1.04 µM |  | 2.07 µM |  | 2.58 µM |  | 3.52 µM |  | 0.365 µM |  | 2.27 µM
O=C(NOC[C@H](O)CO)c1ccc(F)c(F)c1Nc1ccc(I)cc1F | 4.17 µM and > 10 µM | > 100 µM | < 0.01 µM and 0.00143 µM | > 100 µM | < 0.01 µM and 0.00315 µM | > 100 µM | 12.3 µM and 6.3 µM | > 100 µM | 14.5 µM and > 10 µM | > 100 µM |  | > 100 µM | 21.6 µM and > 10 µM | > 100 µM | 51.5 µM and > 4.02 µM | > 100 µM | < 0.01 µM and 0.00132 µM | 0.0969 µM | > 100 µM | > 100 µM
CCCCCCCCCCCCCCCCCC1=NC(C)(C)CN1CC(C)O (centres undefined) | 17.4 µM | 32 µM | 2.5 µM | 6.61 µM | 2.15 µM | 4.78 µM | 3.97 µM | 23.6 µM | 13 µM | 31.4 µM | 14.4 µM | 29.4 µM | 14.9 µM | 31.7 µM | 6.58 µM | 28 µM | 2.29 µM | 5.77 µM | 2.71 µM | 7.39 µM
CCOC(=O)Nc1nc2ccc(OC)cc2s1 | > 100 µM | > 100 µM | > 100 µM | > 100 µM | > 100 µM | > 100 µM | > 100 µM | > 100 µM | > 100 µM | > 100 µM | > 100 µM | > 100 µM | > 100 µM | > 100 µM | > 100 µM | > 100 µM | > 100 µM | > 100 µM | > 100 µM | > 100 µM
COc1cc(OC)c(C(=O)/C=C/c2cc3c(cc2OCc2ccccc2)OC(C)(C)CC3)cc1CC=C(C)C | 3.33 µM | 6.53 µM | 3.97 µM | 8.9 µM | 4.31 µM | 10.2 µM | 6.89 µM | > 25 µM | 4.56 µM | 15.8 µM | 6.74 µM | 16.9 µM | 9.33 µM | > 25 µM | 3.74 µM | 19.1 µM | 3.63 µM | 9.43 µM | 4.02 µM | 19.3 µM
[C](#Cc1ccccc1)[Hg][C]#Cc1ccccc1 | 53.3 µM | > 100 µM | 22.2 µM | 48 µM | 35.5 µM | > 100 µM | > 100 µM | > 100 µM | > 100 µM | > 100 µM | 20 µM | 41.7 µM | 30.6 µM | > 100 µM | 28.8 µM | 79.1 µM | 75.1 µM | > 100 µM | 8.93 µM | > 100 µM
Cc1nc(-c2ccccc2)n2nc(NCCCN3CCOCC3)ncc12 | > 16.7 µM | > 25 µM | 19.1 µM | > 25 µM | > 25 µM | > 25 µM | > 25 µM | > 25 µM | > 25 µM | > 25 µM | 6.86 µM | > 25 µM | > 25 µM | > 25 µM | > 25 µM | > 25 µM | 16.5 µM | > 25 µM | > 25 µM | > 25 µM
CC(C)c1cnn2c(NCc3ccccc3)cc(NC[C@H]3CCNC[C@@H]3O)nc12 | 0.742 µM and 1.19 µM | 2.35 µM and 3.59 µM | 0.179 µM and 0.21 µM | 0.476 µM and 0.749 µM | 0.239 µM and 0.432 µM | 10.4 µM and 11 µM | 15.4 µM and 19.7 µM | 46.9 µM and > 87.5 µM | 1.15 µM and 0.508 µM | 11.1 µM and 9.32 µM | 0.472 µM and 1.65 µM | 9.13 µM and 11.4 µM | 0.547 µM and 0.779 µM | 12.3 µM and 12.2 µM | 0.472 µM and 0.898 µM | 7.58 µM and 9.5 µM | 0.586 µM and 0.688 µM | 2.25 µM and 2.2 µM | 0.31 µM and 0.672 µM | 6.01 µM and 14.9 µM
COc1ccc(-c2ccncc2)cc1C(N)=O | > 25 µM | > 25 µM | > 25 µM | > 25 µM | > 25 µM | > 25 µM | > 25 µM | > 25 µM | > 25 µM | > 25 µM | > 25 µM | > 25 µM | > 25 µM | > 25 µM | > 25 µM | > 25 µM | > 25 µM | > 25 µM | > 25 µM | > 25 µM
